Reference: patent publication US20240423953A1, “METHODS AND COMPOSITIONS FOR TARGETING SV2 PROTEINS FOR IMMUNE REGULATION” (THE REGENTS OF THE UNIVERSITY OF CALIFORNIA, priority 2021, published 2024)
Entries after “also recorded” stand apart in the source; their conditions may differ.

Key:
ST2L [1] = assay: ST2L protein stability in primary MEFs treated with CHX (immunoblot, flow cytometry); assay type: cell-based, mouse
Procedure: (§1) Primary mouse embryonic fibroblast cells (MEFs) were prepared as previously described^35. Briefly, mouse embryos were collected around embryonic day 14. Visible organs such as the brain, liver, and spleen were removed, and the leftover tissue was quickly minced and incubated in 0.25% trypsin-EDTA for 2 hr at 37° C. Cells were then washed with media and seeded in DMEM with 10% FBS, 1% penicillin/streptomycin and 0.055 mM β-mercaptoethanol. Every three days cells were passaged. Starting at passage 2, cells were used for studies.
Dead cells were routinely excluded with Zombie UV Fixable Viability Kit (BioLegend) or Fixable Aqua Dead Cell Stain (Thermo Fisher Scientific). Lineage-positive cells were excluded by staining for B220 (RA3-6B2), […] (145-2C11), TCRβ (H57-597), TCRγδ (eBioGL3), Ter119 (Ter119), NK1.1 (PK136), CD11b (M1/70), and CD11c (N418). For surface staining CD45 (30-F11), KLRG1 (2F1), CD25 (PC61.5), CD127 (A7R34), Sca1 (D7), Thy1/CD90.2 (53-2.1), and ST2 (RMST2-2, eBioscience) were used. For intracellular staining, cells were fixed and permeabilized with the Transcription Buffer Set (BD Pharmingen) per manufacturer's instructions followed by staining with anti-GATA3 (TWAJ, eBioscience), anti-IL-5 (TRFK5, Biolegend) and anti-IL-13 (eBio13A, eBioscience). Stained cells were used for flow cytometry analysis using a LSRII or Attune NxT (Becton Dickinson, BD) flow cytometer. Data were analyzed using the FlowJo software. Different cell types were identified by the following gating strategies^36,37: lung ILC2s (CD45^+Lin KLRG1^+CD90^+ or CD45^+Lin GATA3^+CD90^+CD25^+), BM ILC2P (CD45^+Lin^− CD127^+CD25^+).
(§2) Protein extracts from cells or tissues were prepared using whole protein lysis buffer (WL buffer) containing 50 mM Tris (pH 8), 0.4M NaCl, 0.5% NP-40, 10% glycerol, 1 mM EDTA, 1 mM DTT, and 1 mM PMSF as described previously^39. To extract proteins from MEFs, cells were washed with PBS once and then lysed with WL buffer on ice for 30 min. Lung or brain tissues from mice that had been euthanized and perfused with cold PBS were directly homogenized in the presence of WL buffer or alternatively, tissues were briefly disrupted in PBS and the insoluble fractions were then lysed in WL buffer for protein extraction. Immunoblot analysis was performed using the following antibodies: anti-ST2L (R3880-2, Abiocode), anti-ST2 (M3880-1, Abiocode), anti-SV2A (M3004-1, Abiocode), anti-Tubulin (M0267-1b, Abiocode).

lung ILC2s [2] = assay: Papain-induced mouse lung inflammation model, flow cytometry of lung ILC2s; assay type: in vivo; details: papain 50 μg + LEV 17 mg/kg intranasal daily day 1, 2, 3; day 4; vs papain alone
Excerpt: (§3) Sv2a^+/− mice on C57BL/6 129Sv mixed genetic background^21 were purchased from the Jackson laboratory (B6;129P2-Sv2a^tm1SudSv2b^tm1Sud/J) and were backcrossed to C57 background for at least 5 generations prior to use. Mice were housed under specific-pathogen-free conditions. Sex-matched littermates between 6 and 16 weeks of age were used for experiments if not otherwise indicated. C57BL/6 mice were purchased from the Jackson Laboratory or the UCLA animal core facility. C57BL/6 mice were randomly assigned to treatment groups after matching for sex and age. […] For the IL-33 or papain-induced lung inflammation models, mice were treated intranasally on days 1, 2, and 3. Bone marrows and lungs were harvested, processed, and analyzed on day 4. The inventors were not blinded to allocation during the studies. All studies were conducted in accordance with animal protocols approved by the Animal Research Committee of the University of California Los Angeles.
(§4) Mice were euthanized and perfused with cold PBS. […]
(§5) Dead cells were routinely excluded with Zombie UV Fixable Viability Kit (BioLegend) or Fixable Aqua Dead Cell Stain (Thermo Fisher Scientific). […] Data were analyzed using the FlowJo software. […]

ST2L [3] = assay: Immunoblot analysis of ST2L in lungs of LEV-treated mice; assay type: in vivo, mouse; details: LEV intranasal for 4 hr or daily for three consecutive days (3D), vs PBS
Excerpt: as §3
(§6) Protein extracts from cells or tissues were prepared using whole protein lysis buffer (WL buffer) containing 50 mM Tris (pH 8), 0.4M NaCl, 0.5% NP-40, 10% glycerol, 1 mM EDTA, 1 mM DTT, and 1 mM PMSF as described previously^39. To extract proteins from MEFs, cells were washed with PBS once and then lysed with WL buffer on ice for 30 min. […]

SV2A protein [4] = biological target: T1, SV2A protein (Mus musculus, UniProt Q9JIS5); assay: Immunoblot analysis of SV2A protein in lungs and brain of intranasally treated mice; assay type: in vivo
T1 construct: from tissue; host or cells: lung and brain of C57BL/6 mice
Excerpt: as §3, §6

SV2A protein [5] = biological target: T1, SV2A protein; assay: Cell-free protein stability assay (lung or brain protein extracts, immunoblot with anti-SV2A); assay type: biochemical
Procedure: Proteins extracts were prepared by incubating WL buffer with brain or lung tissues that had been pre-washed with PBS. […] The reaction mixtures were subsequently incubated at 37° C. for 1 hr, and the reactions were terminated by adding 20 μl of 4×SDS sample buffer followed by denaturing at 95° C. for 5 min. The samples were then analyzed directly by immunoblot analysis.
These two models were tested using the in vitro cell-free protein stability assays. […] We prepared two groups of reaction mixtures by mixing 0.2 μg of brain protein extract from WT mice with an excessive amount of either brain protein extract or lung protein extract prepared from Sv2a^−/− pup.

BM ILC2P = assay: Flow cytometry analysis of bone marrow ILC2P in LEV-treated mice; assay type: in vivo, mouse; details: LEV 17 mg/kg intranasal daily day 1, 2, 3; BM harvested day 4
Excerpt: as §3, §4, §5

lung ILC2s [6] = assay: Flow cytometry analysis of lung ILC2 responses in LEV-treated naive mice; assay type: in vivo, mouse; details: LEV 17 mg/kg intranasal daily day 1, 2, 3
Excerpt: as §3
Mice were euthanized and perfused with cold PBS. Lung lobes were diced into small pieces and incubated with 0.2 mg/mL collagenase P. 0.8 mg/mL Dispase II, 0.1 mg/mL DNase I in RPMI1640 containing 5% FBS for 1 hr at 37° C. before being mashed through […] cell strainers. Bone marrow cells were collected by flushing out the marrow from femurs and tibias using a syringe with PBS. Red blood cells were removed using RBC lysis buffer (Sigma-Aldrich, Cat #: R7757) according to the manufacturer's recommendations followed by 1×PBS wash. After saturating the Fc-receptors with CD16/CD32-blocking antibody (BioLegend), single-cell suspensions were incubated on ice with conjugated antibodies in PBS (Ca^2+ and Mg^2+-free).
Dead cells were routinely excluded with Zombie UV Fixable Viability Kit (BioLegend) or Fixable Aqua Dead Cell Stain (Thermo Fisher Scientific). Lineage-positive cells were excluded by staining for B220 (RA3-6B2), […] (145-2C11), TCRβ (H57-597), TCRγδ (eBioGL3), Ter119 (Ter119), NK1.1 (PK136), CD11b (M1/70), and CD11c (N418). […] Data were analyzed using the FlowJo software. […]

Sv2a mRNA = assay: Q-PCR analysis of lung Sv2a gene expression in intranasally treated mice; assay type: in vivo, mouse; details: IL-33 100 ng intranasal, 4 hr
Excerpt: as §3, with “For the IL-33 or papain-induced lung inflammation models, mice were treated intranasally on days 1, 2, and 3. Bone marrows and lungs were harvested, processed, and analyzed on day 4.” left out
Quantitative real time polymerase chain reaction (Q-PCR) analyses were performed as described^38. Briefly, cDNA prepared using the iScript cDNA Synthesis kit (Bio-Rad) were analyzed by Q-PCR using the CFX-96 Real-Time Detection System (Bio-Rad). The Q-PCR primer sequences of genes were: Sv2a forward—[…] (SEQ ID NO:2), Sv2a reverse […] (SEQ ID NO:3), St2l forward […] (SEQ ID NO:4), St2l reverse […] (SEQ ID NO:5), sSt2 forward—[…] (SEQ ID NO:6), sSt2 reverse […] (SEQ ID NO:7). Il1rap forward—[…] (SEQ ID NO:8), Il1rap reverse—[…] (SEQ ID NO:9), Il5 forward—[…] (SEQ ID NO:10), Il5 reverse—[…] (SEQ ID NO:11), Il13 forward—[…] […]

ST2L [7] = assay: Immunoblot analysis of ST2L expression in primary MEFs treated with IL-33; assay type: cell-based, mouse
Procedure: as §1, §2

Il13 and Il5 = assay: Q-PCR analysis of Il13 and Il5 gene induction in primary MEFs treated with IL-33; assay type: cell-based, mouse; details: WT MEFs
Procedure: as §1
Quantitative real time polymerase chain reaction (Q-PCR) analyses were performed as described^38. Briefly, cDNA prepared using the iScript cDNA Synthesis kit (Bio-Rad) were analyzed by Q-PCR using the CFX-96 Real-Time Detection System (Bio-Rad). The Q-PCR primer sequences of genes were: Sv2a forward—[…] (SEQ ID NO:2), Sv2a reverse […] (SEQ ID NO:3), St2l forward […] (SEQ ID NO:4), St2l reverse […] (SEQ ID NO:5), sSt2 forward—[…] (SEQ ID NO:6), sSt2 reverse […] (SEQ ID NO:7). Il1rap forward—[…] (SEQ ID NO:8), Il1rap reverse—[…] (SEQ ID NO:9), Il5 forward—[…] (SEQ ID NO:10), Il5 reverse—[…] (SEQ ID NO:11), Il13 forward—[…] (SEQ ID NO:12), Il13 reverse—[…] (SEQ ID NO:13), Hprt forward—[…] (SEQ ID NO:14), Hprt reverse—[…] (SEQ ID NO:15), Gapdh forward—[…] (SEQ ID NO:16), Gapdh reverse—[…] (SEQ ID NO:17).

T1 sequence (Q9JIS5 whole entry): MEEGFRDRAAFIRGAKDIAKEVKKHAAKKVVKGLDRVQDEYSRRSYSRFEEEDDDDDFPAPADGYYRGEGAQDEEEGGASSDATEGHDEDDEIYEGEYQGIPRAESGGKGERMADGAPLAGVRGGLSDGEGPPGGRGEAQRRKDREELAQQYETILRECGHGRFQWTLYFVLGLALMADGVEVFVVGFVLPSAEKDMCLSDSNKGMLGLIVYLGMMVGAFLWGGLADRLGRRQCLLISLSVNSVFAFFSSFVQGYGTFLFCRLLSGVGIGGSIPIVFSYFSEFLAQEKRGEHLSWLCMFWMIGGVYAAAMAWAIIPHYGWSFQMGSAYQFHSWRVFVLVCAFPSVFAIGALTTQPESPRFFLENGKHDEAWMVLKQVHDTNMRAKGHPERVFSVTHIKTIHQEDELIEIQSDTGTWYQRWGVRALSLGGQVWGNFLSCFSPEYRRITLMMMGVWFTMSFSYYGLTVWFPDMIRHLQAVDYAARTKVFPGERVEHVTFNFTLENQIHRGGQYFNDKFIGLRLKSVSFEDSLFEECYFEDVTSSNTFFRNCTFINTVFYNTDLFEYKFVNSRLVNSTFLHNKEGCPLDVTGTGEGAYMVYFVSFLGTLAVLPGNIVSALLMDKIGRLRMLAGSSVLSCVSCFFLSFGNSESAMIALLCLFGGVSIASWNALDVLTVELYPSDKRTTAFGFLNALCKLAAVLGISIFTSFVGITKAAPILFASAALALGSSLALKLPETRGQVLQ

C[C@@H]1C[C@@H]([C@H](O)CC2CC(=O)NC(=O)C2)C(=O)[C@@H](C)C1 [CHX, cycloheximde]
ST2L expression (immunoblot) (ST2L [1]; Sv2a KO MEFs, 6 hr after CHX treatment): no longer detectable | reduction of percentage of ST2+ cells (flow cytometry) (ST2L [1]; Sv2a KO MEFs, CHX 20 hr): more than 15 fold | percentage of ST2+ cells after CHX (ST2L [1]; Sv2a KO MEFs, CHX 20 hr (from 13.7% untreated)): 0.78% | ST2L expression (immunoblot) (ST2L [1]; WT MEFs, 6 hr after CHX treatment): only modestly reduced | ST2L expression (immunoblot) (ST2L [1]; WT MEFs, CHX for 20 hr): remained to be detectable | reduction of ST2+ cells (flow cytometry) (ST2L [1]; WT primary MEFs, CHX 20 hr): about 3 fold | percentage of ST2+ cells after CHX (ST2L [1]; WT primary MEFs, CHX 20 hr (from 20.5% untreated)): 6.35%

CC[C@@H](C(N)=O)N1CCCC1=O [LEV, (S)-(−)-α-ethyl-2-oxo-1-pyrrolidine acetamide]
frequency of lung ILC2s, papain-induced ILC2 responses (lung ILC2s [2]): reducing | production of IL-5 and IL-13 by lung ILC2s, papain-induced (lung ILC2s [2]): blocking | ST2L protein in the lungs (immunoblot) (ST2L [3]): clear suppression; also recorded: reduced | SV2A protein in the brain (immunoblot) (SV2A protein [4]; LEV 17 mg/kg intranasal, C57/BL6 mice): did not reduce | degradation of brain SV2A protein with excess lung protein extracts from Sv2a-/- pup (SV2A protein [5]; 0.2 μg WT brain extract, 10 mM LEV): completely degraded | degradation of brain SV2A protein with excess brain protein extracts from Sv2a-/- pup (SV2A protein [5]; 0.2 μg WT brain extract, LEV 0.1 mM, 0.5 mM, 10 mM): did not cause the degradation | SV2A protein in brain extracts (SV2A protein [5]; brain extracts, LEV, similar conditions (37° C.)): failed to reduce | development of BM ILC2P (BM ILC2P): suppressed | populations of lung ILC2 cells producing IL-13 and IL-5 (lung ILC2s [6]; day 4): suppressed | reduction of the cell numbers of lung ILC2s (lung ILC2s [6]; lungs harvested day 4): about 50% | reduction of the frequency of lung ILC2s (lung ILC2s [6]; lungs harvested day 4): about 50%

B1: IL-33: alarmin cytokine that signals through its receptor ST2; used as stimulus (R&D) (protein, UniProt O95760 1-270, looked up)
Interleukin-33: MKPKMKYSTNKISTAKWKNTASKALCFKLGKSQQKAKEVCPMYFMKLRSGLMIKKEACYFRRETTKRPSLKTGRKHKRHLVLAACQQQSTVECFAFGISGVQKYTRALHDSSITGISPITEYLASLSTYNDQSITFALEDESYEIYVEDLKKDEKKDKVLLSYYESQHPSNESGDGVDGKMLMVTLSPTKDFWLHANNKEHSVELHKCEKPLPDQAFFVLHNMHSNCVSFECKTDPGVFIGVKDNHLALIKVDSSENLCTENILFKLSET
levels of Sv2a mRNA in the lungs (Q-PCR) (Sv2a mRNA): did not suppress | level of ST2L (immunoblot) (ST2L [7]; Sv2a KO MEFs, IL-33 for 20 hr): dramatic reduction | level of ST2L (immunoblot) (ST2L [7]; WT MEFs, IL-33): not reduced | IL33-triggered induction of Il13 and Il5 (Q-PCR) (Il13 and Il5): significantly increased | SV2A protein in the lungs (immunoblot) (SV2A protein [4]; IL-33 100 ng intranasal, 4 hr): reduction; also recorded: suppressed
